Data reported in article PMC10793205, “Differential transmetallation of complexes of the anti-cancer thiosemicarbazone, Dp4e4mT: effects on anti-proliferative efficacy, redox activity, oxy-myoglobin and oxy-hemoglobin oxidation” (Chemical Science, 2023).

What was measured:
[1] = Transmetallation kinetics with Cu(OAc)2 in DMSO (time-resolved UV-vis); type: physicochemical; conditions: for Observed pseudo first order rate constant kobs, Cu(OAc)2 (only or first step): 10-fold excess of Cu(OAc)2 in DMSO, 25 °C
Method: The capacity of the Fe(III), Ni(II), Co(III), Zn(II), Ga(III), and Pd(II) complexes of Dp4e4mT to transmetallate with Cu(II) and/or Fe(III) to result in redox active Cu(II) and Fe(III) complexes could be critical in understanding their anti-proliferative efficacy, redox activity, and ability to oxidize oxy-Mb and oxy-Hb. To examine this, LC-MS spectrometry was performed in DMSO after the addition of 1 equivalent of FeCl3 or Cu(OAc)2 and the solutions then incubated for 24 h/20 °C due to slow reaction kinetics. This solution was then diluted 1 : 1 in methanol and LC-MS performed using a mobile phase consisting of 90% MeOH, 9.9% water, and 0.1% formic acid (Fig. S2–S9 ^†). These investigations were supported by EPR studies in DMSO after the addition of 1 equivalent of FeCl3 or Cu(OAc)2 incubated under the same conditions (Fig. 3A–G). As a third method to investigate transmetallation, kinetic studies using time-resolved UV-vis spectroscopy were performed under pseudo-first order conditions with a 10-fold excess of FeCl3 or Cu(OAc)2 in DMSO (Fig. S11–S16 ^†). The pseudo-first order rate constants were calculated from the time-dependent UV-vis spectroscopy data (at all wavelengths) with Reactlab Kinetics[49] and collected in Table S2. ^† […]
Time-dependent UV-Vis absorption spectra were measured on an Agilent 8453 diode array UV−Vis spectrophotometer, equipped with a thermostatted (± 0.1 °C) multicell transport cooled by a Huber Ministat 230 recirculating cooling bath. Spectral analysis was carried out with Reactlab Kinetics. 10 […]
Table S2. Observed pseudo first order rate constants (k obs, s−1) for reactions of each Dp4e4mT complex with a 10-fold excess of Cu(OAc) 2 or FeCl 3 in DMSO or water (pH 7.4 or 5.0) at 25 °C. […]
[Co(Dp4e4mT)2]+ No reaction No reaction No reaction No reaction […]
a Reaction could not be deciphered by UV-Vis spectroscopy; bchlorido ligand hydrolysis

[2] = system: H2DCF; experiment: Redox activity: H2DCF oxidation to DCF (cell-free, L-cysteine/H2O2); type: biochemical; conditions: for DCF fluorescence (H2DCF oxidation) after addition of CuCl2: 10 μM complex + CuCl2, pH 7.4 and pH 5; for DCF fluorescence (H2DCF oxidation) of agent alone: 10 μM, pH 7.4 and pH 5, no added CuCl2
Method: Redox activity in cells was examined using an established in vitro method examining 2′,7′-dichlorodihydrofluorescein (H2DCF) oxidation to fluorescent 2′,7′-dichlorofluorescein (DCF) at cytosolic pH (pH 7.4 using HBSS buffer) relative to lysosomal pH (pH 5; acetate buffer; Fig. 5).[25,26,28,42,46] To these buffers containing the complexes, L-cysteine (100 μM) was added as a reducing agent, followed by H2DCF (5 μM). Then, hydrogen peroxide (H2O2; 100 μM) was added to initiate hydroxyl radical generation. Both [Cu(DpC)Cl2] and [Cu(DpC)2] were used as positive controls due to their documented redox activity.[28,42] In contrast, the ligand, DpC, was implemented as a negative control, as it is redox inert.[28,42] As an additional control, the established Cu chelator, tetrathiomolybdate (TM), was utilized to remove Cu from the thiosemicarbazone complexes to indicate its role in their redox activity.[27,28,42] Additionally, UV-vis spectroscopy (300–700 nm) of the same solution for each complex was also performed to understand both the oxidation of H2DCF and the formation of fluorescent DCF upon excitation at 503 nm (Fig. S20A–F and S21A–F ^†). […]
ROS Generation Analysis with H 2DCF-DA
The generation of reactive oxygen species (ROS) was assessed by examining the oxidation of H2DCF.2, 8, 13, 14 Solutions containing CuCl2, TM, DpC, Dp4e4mT, [Fe(DpC)2]+, [Cu(DpC)Cl2], [Cu(DpC)2] and the Dp4e4mT complexes were prepared at a concentration of 10 µM in either HBSS (pH 7.4) or 150 mM acetate buffer (pH 5) to simulate the conditions of the cytosol and lysosome, respectively.2, 8, 14, 15 The H2DCF was prepared by deacetylation of DCFH-DA (Sigma-Aldrich) through alkaline hydrolysis using NaOH. 16
In these prepared solutions, L-cysteine (100 µM) was added as a reducing agent and then H2DCF (5 µM) added. The initiation of hydroxyl radical generation was achieved by the addition of hydrogen peroxide (H2O2; 100 µM). As a comparative benchmark, HBSS or acetate buffer containing L-cysteine, H2DCF, and H2O2, but lacking ligands or metal complexes, was employed as a control. Fluorescence measurements were carried out using a CLARIOstar Plus microplate reader (BMG LABTECH, Australia) with an excitation wavelength of 485 nm and an emission wavelength of 530 nm. 8, 14

CCN(C)C([S-])=NN=C(c1ccccn1)c1ccccn1.CCN(C)C([S-])=NN=C(c1ccccn1)c1ccccn1.[Ni+2] [[Ni(Dp4e4mT)2]]
t½, transmetallation with Cu(OAc)2 ([1]; Cu(OAc)2 in DMSO): ~2 h | DCF fluorescence (H2DCF oxidation) after addition of CuCl2 [2]: markedly and significantly (p < 0.0001–0.001) increased DCF fluorescence

CCN(C)C([S-])=NN=C(c1ccccn1)c1ccccn1.CCN(C)C([S-])=NN=C(c1ccccn1)c1ccccn1.[Ga+3] [[Ga(Dp4e4mT)2]^+]
t½, transmetallation with Cu(OAc)2 ([1]; Cu(OAc)2 in DMSO): 3 to 4 h | DCF fluorescence (H2DCF oxidation) after addition of CuCl2 [2]: markedly and significantly (p < 0.0001–0.001) increased DCF fluorescence

CCN(C)C([S-])=NN=C(c1ccccn1)c1ccccn1.CCN(C)C([S-])=NN=C(c1ccccn1)c1ccccn1.[Fe+3] [[Fe(Dp4e4mT)2]^+]
t½, reaction with Cu(OAc)2, first step ([1]; Cu(OAc)2 in DMSO, first of two consecutive first order steps): ~6 min | t½, reaction with Cu(OAc)2, second step ([1]; Cu(OAc)2 in DMSO, second of two consecutive first order steps): ~1 h | DCF fluorescence (H2DCF oxidation) after addition of CuCl2 [2]: markedly and significantly (p < 0.0001–0.001) increased DCF fluorescence | DCF fluorescence (H2DCF oxidation) of agent alone [2]: markedly and significantly (p < 0.0001) less redox active

CN(C(=S)NN=C(c1ccccn1)c1ccccn1)C1CCCCC1 [DpC, di-2-pyridylketone 4-cyclohexyl-4-methyl-3-thiosemicarbazone, reference compound]
DCF fluorescence (H2DCF oxidation) of agent alone [2]: did not significantly (p > 0.05) increase DCF fluorescence

CCN(C)C(=S)NN=C(c1ccccn1)c1ccccn1 [Dp4e4mT, di-2-pyridylketone-4-ethyl-4-methyl-3-thiosemicarbazone]
DCF fluorescence (H2DCF oxidation) of agent alone [2]: did not significantly (p > 0.05) increase DCF fluorescence

CCN(C)C([S-])=NN=C(c1ccccn1)c1ccccn1.CCN(C)C([S-])=NN=C(c1ccccn1)c1ccccn1.[Zn+2] [[Zn(Dp4e4mT)2]]
Observed pseudo first order rate constant kobs, Cu(OAc)2 (only or first step) [1]: > 0.1 s⁻¹ | DCF fluorescence (H2DCF oxidation) after addition of CuCl2 [2]: markedly and significantly (p < 0.0001–0.001) increased DCF fluorescence

CCN(C)C([S-])=NN=C(c1ccccn1)c1ccccn1.CCN(C)C([S-])=NN=C(c1ccccn1)c1ccccn1.[Co+3] [[Co(Dp4e4mT)2]^+]
Observed pseudo first order rate constant kobs, Cu(OAc)2 (only or first step) [1]: No reaction | DCF fluorescence (H2DCF oxidation) after addition of CuCl2 [2]: not significantly (p > 0.05) different to CuCl2 alone

CCN(C)C([S-])=NN=C(c1ccccn1)c1ccccn1.[Cl-].[Cu+2] [[Cu(Dp4e4mT)Cl]]
DCF fluorescence (H2DCF oxidation) of agent alone [2]: greatest efficacy at increasing DCF fluorescence

CCN(C)C([S-])=NN=C(c1ccccn1)c1ccccn1.[Cl-].[Pd+2] [[Pd(Dp4e4mT)Cl]]
Observed pseudo first order rate constant kobs, Cu(OAc)2 (only or first step) [1]: No reaction | DCF fluorescence (H2DCF oxidation) after addition of CuCl2 [2]: approximately half
